Values quoted from earlier work, collected in US5763596A, “C-4' modified adenosine kinase inhibitors” (Metabasis Therapeutics, Inc., priority 1996, dated 1998).
Read-outs that look alike come from different tables or passages of the source.

Tests used:
rat cardiomyocytes = settings: adenosine deaminase inhibition alone; cited from earlier work
[1] = tested on: isolated guinea pig hearts; settings: in the absence of ADA inhibition; cited from earlier work
guinea pig brain slices = settings: cited from earlier work
mice = settings: cited from earlier work
rat brain slices = settings: cited from earlier work
isolated rat hearts = settings: cited from earlier work
[2] = in vivo; cited from earlier work

| Compound | adenosine uptake (guinea pig brain slices) | general flaccidity (mice) | adenosine uptake (rat brain slices) | other results |
| --- | --- | --- | --- | --- |
| OC[C@H]1O[C@@H](n2cnc3c2N=CNC[C@H]3O)C[C@@H]1O [2'-deoxycoformycin] |  |  |  | effect on adenosine release from the cells (rat cardiomyocytes): no effect on adenosine release |
| NC[C@H]1O[C@@H](n2cnc3c(N)ncnc32)[C@H](O)[C@@H]1O [5'-amino-5'-deoxyadenosine] |  |  |  | adenosine release effect [1]: not apparent |
| C[C@H]1O[C@@H](n2cc(I)c3c(N)ncnc32)[C@H](O)[C@@H]1O [5'-deoxy-5-iodotubercidin] | adenosine uptake was reportedly inhibited | pronounced general flaccidity | adenosine uptake was reportedly inhibited |  |
| Nc1ncnc2c1c(I)cn2[C@@H]1O[C@H](CO)[C@@H](O)[C@H]1O [5-iodotubercidin] | adenosine uptake was reportedly inhibited | pronounced general flaccidity | adenosine uptake was reportedly inhibited | increase in perfusate adenosine concentration (isolated rat hearts; hypoxic, anoxic or ischemic conditions): no increase in perfusate adenosine concentration; increase in perfusate adenosine concentration (isolated rat hearts; normoxic conditions): no increase in perfusate adenosine concentration; protection against ischemic cerebral injury [2]: apparently does not protect against ischemic cerebral injury |
